Laboratory results taken from patent US20050112573A1, “Method of detecting toxic substance” (priority 2001, published 2005).

Tested on: yeast genes (level of expressed mRNA)
Assay: DNA chip analysis of expressed mRNA of yeast genes after 2 h culture with a toxic chemical substance
Assay type: cell-based, Saccharomyces cerevisiae S288C
Details: for The level of expressed mRNA in the presence of chemical substance/ (ratio to absence of chemical substance): stress protein genes, DNA chip
Description: Yeast (Saccharomyces cerevtisiae S288C (α SUC2mal mel gap2 CUP1)) were cultured at 25° C. on YPD medium (yeast extract 1%, polypepton 2%, glucose 2%). One of toxic chemical substances was added to the cell at logarithmic growth phase, and the cell was further cultured for two hours. Cell was cultured without any chemical substance in the same condition, and was used as control. Concentrations of the chemical substances were defined to inhibit the growth of the yeast but not lead to death.
After the completion of cultivation, the culture was centrifuged to collect the cells. To the cells, sodium acetate buffer (50 mM sodium acetate, 10 mM EDTA, 1% SDS) was added, and the mixture was shaken at 65° C. for five minutes, followed by returning to room temperature, and obtaining the supernatant, which procedure was repeated two times. To the supernatant, ½ amount of a solution of phenol/chloroform was added, and the mixture was centrifuged to give a supernatant, which was added with an equal amount of chloroform, and the mixture was centrifuged to give a supernatant. To the supernatant, an equal amount of isopropanol containing 0.3 M sodium acetate was added, and the mixture was allowed to stand at room temperature for 30 minutes, after which the mixture was centrifuged to give a sediment of the whole RNAs. Seventy % ethanol was added to the sediment, and the mixture was again centrifuged to give a sediment, which was then dried and dissolved in water. mRNA was isolated from the whole RNAs as followings. In view of the fact that a poly A chain is attached to the 3′ terminus of mRNA, a polynucleotide having a poly T structure which was immobilized on the surface of latex beads was used to trap the mRNA, and then the mRNA was washed and eluted with spine column (Oligotex-dT30<Super>mRNA Purification Kit, Takara). Reverse transcription of the mRNA was conducted with a reverse transcriptase (Super Script II Reverse Transcriptase; catalogue No. 18064-014, GibcoBRL) using fluorescence-labeled nucleotides to give cDNAs that were introduced with Cy3-dUTP or Cy5-dUTP during the reverse transcription.
The labeled cDNAs were dissolved in TE buffer (10 mM Tris-HCl/1 mM EDTA, pH8.0), and the solution was dropped on the DNA chip containing the whole genes of yeast (DNA Chip Research Inc. Japan) so that the cDNAs were hybridized on the DNA chip at 65° C. for over 12 hours. The fluoresces intensity of the DNA chip was read with a scanner, and the ratio relative to the fluorescence intensity resulting from the absence of chemical substance was estimated as the following, which is shown in Tables 1 to 9: [formula]
In the Tables, “Intensity” indicated in the rightmost column is a value of the level of expressed mRNA of each gene in control cells as divided by the average level of the expressions of the whole genes.

`C=CC=O` [(14), acrolein] was tested, and the “The level of expressed mRNA in the presence of chemical substance/The level of expressed mRNA in the absence of chemical substance” value (yeast gene YIL140W) was 0.9, the “The level of expressed mRNA in the presence of chemical substance/ (in its absence), gene YJL070C” value (yeast gene YJL070C, ratio of DNA chip fluorescence intensity to that without chemical substance) was 1.3 and the “The level of expressed mRNA in the presence of chemical substance/The level of expressed mRNA in the absence of chemical substance” value (yeast gene YJL073W) was 1.1. The “The level of expressed mRNA in the presence of chemical substance/The level of expressed mRNA in the absence of chemical substance” value (yeast gene YJL089W) was 1.8, the “The level of expressed mRNA in the presence of chemical substance/ (ratio to absence), gene YJL096W” value (yeast gene YJL096W, mitochondria-located protein genes, 2 h culture with chemical) was 2.1 and the “The level of expressed mRNA in the presence of chemical substance/The level of expressed mRNA in the absence of chemical substance” value (yeast gene YJL116C) was 2.6. For the same compound, the “The level of expressed mRNA in the presence of chemical substance/ (ratio to absence of chemical substance)” value (yeast gene YJL158C) was 0.5, the “The level of expressed mRNA in the presence of chemical substance/ (in its absence), gene YJL167W” value (yeast gene YJL167W, ratio of DNA chip fluorescence intensity to that without chemical substance) was 0.9 and the “The level of expressed mRNA in the presence of chemical substance/ (ratio to absence), gene YJL180C” value (yeast gene YJL180C, mitochondria-located protein genes, 2 h culture with chemical) was 1.4. The “The level of expressed mRNA in the presence of chemical substance/ (in its absence), gene YJL216C” value (yeast gene YJL216C, ratio of DNA chip fluorescence intensity to that without chemical substance) was 1.1, the “The level of expressed mRNA in the presence of chemical substance/The level of expressed mRNA in the absence of chemical substance” value (yeast gene YJR004C) was 0.7 and the “The level of expressed mRNA in the presence of chemical substance/The level of expressed mRNA in the absence of chemical substance” value (yeast gene YJR086W) was 2.2. For the same compound, the “The level of expressed mRNA in the presence of chemical substance/ (ratio to absence of chemical substance)” value (yeast gene YJR090C) was 1.0, the “The level of expressed mRNA in the presence of chemical substance/The level of expressed mRNA in the absence of chemical substance” value (yeast gene YKL008C) was 0.8 and the “The level of expressed mRNA in the presence of chemical substance/The level of expressed mRNA in the absence of chemical substance” value (yeast gene YKL013C) was 1.4. For the same compound, the “The level of expressed mRNA in the presence of chemical substance/The level of expressed mRNA in the absence of chemical substance” value (yeast gene YKL039W) was 0.8, the “The level of expressed mRNA in the presence of chemical substance/The level of expressed mRNA in the absence of chemical substance” value (yeast gene YKL041W) was 1.3 and the “The level of expressed mRNA in the presence of chemical substance/The level of expressed mRNA in the absence of chemical substance” value (yeast gene YKL096W) was 0.5. The “The level of expressed mRNA in the presence of chemical substance/ (ratio to absence of chemical substance)” value (yeast gene YKL164C) was 0.3, the “The level of expressed mRNA in the presence of chemical substance/The level of expressed mRNA in the absence of chemical substance” value (yeast gene YKL165C) was 0.8 and the “The level of expressed mRNA in the presence of chemical substance/The level of expressed mRNA in the absence of chemical substance” value (yeast gene YKL193C) was 1.2. For the same compound, the “The level of expressed mRNA in the presence of chemical substance/ (in its absence), gene YKR009C” value (yeast gene YKR009C, ratio of DNA chip fluorescence intensity to that without chemical substance) was 1.0, the “The level of expressed mRNA in the presence of chemical substance/ (in its absence), gene YKR034W” value (yeast gene YKR034W, ratio of DNA chip fluorescence intensity to that without chemical substance) was 1.1 and the “The level of expressed mRNA in the presence of chemical substance/ (ratio to absence of chemical substance)” value (yeast gene YKR053C) was 1.3. The “The level of expressed mRNA in the presence of chemical substance/ in its absence, gene YKR058W” value (yeast gene YKR058W, energy system protein genes, 2 h culture with the chemical, ratio to control without chemical) was 1.3, the “The level of expressed mRNA in the presence of chemical substance/ (in its absence), gene YLR006C” value (yeast gene YLR006C, ratio of DNA chip fluorescence intensity to that without chemical substance) was 1.0 and the “The level of expressed mRNA in the presence of chemical substance/ (ratio to absence of chemical substance)” value (yeast gene YLR006C) was 1.0. For the same compound, the “The level of expressed mRNA in the presence of chemical substance/The level of expressed mRNA in the absence of chemical substance” value (yeast gene YLR120C) was 0.8, the “The level of expressed mRNA in the presence of chemical substance/The level of expressed mRNA in the absence of chemical substance” value (yeast gene YLR136C) was 0.7 and the “The level of expressed mRNA in the presence of chemical substance/The level of expressed mRNA in the absence of chemical substance” value (yeast gene YLR178C) was 2.8. The “The level of expressed mRNA in the presence of chemical substance/The level of expressed mRNA in the absence of chemical substance” value (yeast gene YLR250W) was 2.5, the “The level of expressed mRNA in the presence of chemical substance/ in its absence, gene YLR295C” value (yeast gene YLR295C, energy system protein genes, 2 h culture with the chemical, ratio to control without chemical) was 1.2 and the “The level of expressed mRNA in the presence of chemical substance/ (ratio to absence), gene YLR295C” value (yeast gene YLR295C, mitochondria-located protein genes, 2 h culture with chemical) was 1.2. For the same compound, the “The level of expressed mRNA in the presence of chemical substance/The level of expressed mRNA in the absence of chemical substance” value (yeast gene YLR327C) was 1.5, the “The level of expressed mRNA in the presence of chemical substance/ (in its absence), gene YLR351C” value (yeast gene YLR351C, ratio of DNA chip fluorescence intensity to that without chemical substance) was 1.4 and the “The level of expressed mRNA in the presence of chemical substance/The level of expressed mRNA in the absence of chemical substance” value (yeast gene YLR356W) was 2.2. The “The level of expressed mRNA in the presence of chemical substance/The level of expressed mRNA in the absence of chemical substance” value (yeast gene YLR362W) was 1.2, the “The level of expressed mRNA in the presence of chemical substance/ (in its absence), gene YLR375W” value (yeast gene YLR375W, ratio of DNA chip fluorescence intensity to that without chemical substance) was 0.9 and the “The level of expressed mRNA in the presence of chemical substance/The level of expressed mRNA in the absence of chemical substance” value (yeast gene YLR391W) was 0.5. The “The level of expressed mRNA in the presence of chemical substance/The level of expressed mRNA in the absence of chemical substance” value (yeast gene YLR429W) was 0.7, the “The level of expressed mRNA in the presence of chemical substance/ in its absence, gene YML129C” value (yeast gene YML129C, energy system protein genes, 2 h culture with the chemical, ratio to control without chemical) was 1.4 and the “The level of expressed mRNA in the presence of chemical substance/ (ratio to absence), gene YML129C” value (yeast gene YML129C, mitochondria-located protein genes, 2 h culture with chemical) was 1.4. The “The level of expressed mRNA in the presence of chemical substance/The level of expressed mRNA in the absence of chemical substance” value (yeast gene YMR004W) was 2.2, the “The level of expressed mRNA in the presence of chemical substance/ (ratio to absence), gene YMR023C” value (yeast gene YMR023C, mitochondria-located protein genes, 2 h culture with chemical) was 1.6 and the “The level of expressed mRNA in the presence of chemical substance/The level of expressed mRNA in the absence of chemical substance” value (yeast gene YMR094W) was 2.8. The “The level of expressed mRNA in the presence of chemical substance/The level of expressed mRNA in the absence of chemical substance” value (yeast gene YMR104C) was 1.1, the “The level of expressed mRNA in the presence of chemical substance/ (ratio to absence of chemical substance)” value (yeast gene YMR186W) was 0.6 and the “The level of expressed mRNA in the presence of chemical substance/The level of expressed mRNA in the absence of chemical substance” value (yeast gene YMR219W) was 0.5. For the same compound, the “The level of expressed mRNA in the presence of chemical substance/The level of expressed mRNA in the absence of chemical substance” value (yeast gene YMR226C) was 1.6, the “The level of expressed mRNA in the presence of chemical substance/ in its absence, gene YMR267W” value (yeast gene YMR267W, energy system protein genes, 2 h culture with the chemical, ratio to control without chemical) was 1.0 and the “The level of expressed mRNA in the presence of chemical substance/ (ratio to absence), gene YMR267W” value (yeast gene YMR267W, mitochondria-located protein genes, 2 h culture with chemical) was 1.0. For the same compound, the “The level of expressed mRNA in the presence of chemical substance/ in its absence, gene YMR267W” value (yeast gene YMR267W, ratio of DNA chip fluorescence intensity to that without chemical substance) was 1.0, the “The level of expressed mRNA in the presence of chemical substance/The level of expressed mRNA in the absence of chemical substance” value (yeast gene YMR275C) was 0.8 and the “The level of expressed mRNA in the presence of chemical substance/The level of expressed mRNA in the absence of chemical substance” value (yeast gene YMR276W) was 1.2. For the same compound, the “The level of expressed mRNA in the presence of chemical substance/ (in its absence), gene YMR278W” value (yeast gene YMR278W, ratio of DNA chip fluorescence intensity to that without chemical substance) was 0.8, the “The level of expressed mRNA in the presence of chemical substance/ (in its absence), gene YMR293C” value (yeast gene YMR293C, ratio of DNA chip fluorescence intensity to that without chemical substance) was 1.3 and the “The level of expressed mRNA in the presence of chemical substance/The level of expressed mRNA in the absence of chemical substance” value (yeast gene YMR314W) was 1.0.
